Test results published in patent publication US9873693B2 (Sunesis Pharmaceuticals, Inc., priority 2006, dated 2018).
pEC50, pIC50: −log10 of the molar value.

Experiments:
[1] = biological target: phosphorylated PDK1 (Homo sapiens (Human), UniProt O15530); assay: PDK1 kinase assay (coupled PDK1/AKT/FAM-crosstide, IMAP); type: biochemical; conditions: 0.5 nM phosphorylated PDK1, 24 μM ATP; read-out: Inhibition of phospo-PDK1 in vitro IC50
[2] = system: phospho-akt (Thr308); assay: phospho-akt (Thr308) MSD ELISA in PC-3 cells; type: cell-based; conditions: Homo sapiens, PC-3, 2 h, PC-3 cells, 2 hours, no serum; read-out: Inhibition of P308 Akt in cells using MSD EC50
How it was run: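 Read-out is MSD electrochemiluminescence after lysate capture overnight at 4 degrees and 1 hr RT detection-antibody step. Before lysis, overnight-plated PC-3 cells received three-fold serial dilutions of inhibitor in serum-free medium, with DMSO-only high controls.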

[3] = system: Phospho-T308 Akt; assay: Phospho-T308 Akt detection using immunoblot (western blot) in PC-3 cells; type: cell-based; conditions: 2 μM or 5 μM, concentration not given
How it was run: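 PC-3 prostate cells, cultured overnight in F12K plus 10% FBS, were treated for 2 h at 37 °C in serum-free medium with compound A (1000× DMSO dilutions). Lysate protein was immunoblotted with anti-phospho-Akt Thr308. Bands were quantified by background-subtracted densitometry, giving EC50 by non-linear regression and percent decrease at 2 μM and 5 μM.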

[4] = biological target: full-length PDK1 (Homo sapiens (Human), UniProt O15530); assay: PDK phosphorylation of AKT and PKC-PIFtide in presence of PIP3 vesicles; type: biochemical; conditions: substrates PKC-PIFtide vs AKT2
Procedure: PDK phosphorylation of two different substrates, AKT and PKC-PIFtide, was measured in presence of pre-formed phophoinositol lipid PIP3 vesicles. 5 nM full-length PDK1 and was incubated with 100 nM substrate (unphosphorylated, full-length AKT2 or PKC-PIFtide, Invitrogen cat#P2925) in presence of test compound or DMSO at room temperature for 3 hours. Final buffer conditions were 10 mM Tris pH 7.5 buffer containing 10 mM MgCl2, 0.002% Triton X-100, 1 mM DTT, 0.2 mg/ml BSA, 10 uM PtdIns(3,4,5)P3 (Matreya, Inc), 100 uM DOPC:DOPS (Avanti Polar Lipids), and 0.5 uCi γ^33P-ATP (3000 Ci/mmol, Perkin-Elmer.)
Kinase reactions were stopped with addition of 50 uM non-labelled ATP and 5 mM EDTA, then acidified with 0.5% final concentration phosphoric acid. Labeled proteins were collected in Whatman P81 filter plates and washed with three 150 ul volumes of 0.5% phosphoric acid.
Lipid vesicles were pre-formed as follows. 15 mg (3 ampules) DOPC:DOPS was resuspended in 898 ul 10 mM HEPES pH 7.4. 1 mg PIP3 was resuspended in 1000 ul 10 mM HEPES pH 7.4. 964 ul of PIP3 was mixed with 800 ul DOPC:DOPS and diluted with 18.2 ml 10 mM HEPES pH 7.4 and mixed by vortexing. The lipid mixture was subjected to 5 cycles of freeze/thaw using liquid nitrogen and a 50° C. water bath. Aliquot of lipids were flash frozen and stored at −20° C.

Chain of full-length PDK1 (O15530 whole entry): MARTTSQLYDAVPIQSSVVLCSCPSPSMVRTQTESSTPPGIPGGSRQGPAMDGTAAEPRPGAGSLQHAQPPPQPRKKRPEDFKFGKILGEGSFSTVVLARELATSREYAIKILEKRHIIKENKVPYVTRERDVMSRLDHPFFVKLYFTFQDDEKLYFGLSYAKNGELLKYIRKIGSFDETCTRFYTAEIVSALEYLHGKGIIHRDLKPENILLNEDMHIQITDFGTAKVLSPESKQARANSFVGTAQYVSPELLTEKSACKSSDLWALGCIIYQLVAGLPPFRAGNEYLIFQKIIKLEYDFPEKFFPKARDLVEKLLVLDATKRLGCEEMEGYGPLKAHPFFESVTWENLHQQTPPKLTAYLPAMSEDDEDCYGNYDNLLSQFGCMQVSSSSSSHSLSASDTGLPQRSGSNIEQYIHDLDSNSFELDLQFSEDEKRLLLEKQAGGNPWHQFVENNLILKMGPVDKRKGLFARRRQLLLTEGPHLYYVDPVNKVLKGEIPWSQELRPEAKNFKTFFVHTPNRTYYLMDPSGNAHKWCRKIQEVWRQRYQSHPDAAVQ
Chain of phosphorylated PDK1 (O15530 51-360): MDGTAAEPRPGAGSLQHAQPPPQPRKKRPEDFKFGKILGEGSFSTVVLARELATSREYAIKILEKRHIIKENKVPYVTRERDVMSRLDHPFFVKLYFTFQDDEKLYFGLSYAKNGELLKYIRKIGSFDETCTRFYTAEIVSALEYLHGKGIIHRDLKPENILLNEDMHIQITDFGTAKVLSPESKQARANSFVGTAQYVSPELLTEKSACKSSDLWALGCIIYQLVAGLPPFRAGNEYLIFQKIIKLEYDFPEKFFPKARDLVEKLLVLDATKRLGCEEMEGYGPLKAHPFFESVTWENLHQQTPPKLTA

## O=C(NCc1nc(-c2c[nH]c3ncccc23)cs1)c1cccn(Cc2ccc(F)c(F)c2)c1=O [Cpd 112]
[1]
  pIC50: > 6.30
[2]
  pEC50: > 6.00
[3]
  Percent Inhibition of phospho-Akt (308) By Western: d (inhibition of less than 25%)
[4]
  Ratio of PIP3 IC50 with PKCtide to PIP3 IC50 with AKT: 71.9
